Where two headings read alike, the source gives them in different places. Non-standard residues stand in square brackets, D forms with d. Residues, ends and D or L forms follow the SMILES beside them. *: point of attachment. X1 = CC(C)C[C@@H](CN1CCC[N+]2=C1CCC2)N*; X2 = CC(C)C[C@@H](C[N+]1=C2CCCN2CCC1)N*; Pip = O=C(O)[C@@H]1CCCCN1; Iva = CC[C@](C)(N)C(=O)O; Aib = CC(C)(N)C(=O)O; βAla = NCCC(=O)O
Key:
[1] = target: Toxoplasma gondii tachyzoites (RH88); assay: microbe, parasite or virus in culture; settings: read-out: TgRH88 IC50 (mean ± SEM)
Method: For the initial fixed concentration screening and IC50 determination in T. gondii, we utilized a luciferase expressing RH88 strain to quantify the number of live, actively replicating parasites. To construct this strain, the Fluc and DHFR selection markers had been integrated into the UPRT locus through CRISPR/Cas9, rendering the strain pyrimethamine-resistant ([6]). Screening was performed using a pure compound library provided by the University of Oklahoma Natural Products Discovery Group, containing 683 compounds derived primarily from fungal secondary metabolites. For purposes of testing, HFFs were grown in 96-well microtiter plates in preparation. The media we used to grow cells was referred to a D10 media that was composed of Dulbecco's Modified Eagle Medium (Thermo Fisher; Cat # 11995073), 10% Fetal Bovine Serum (Sigma-Aldrich; Cat # 12306C), 1 × non-essential amino acids (100 ×; Thermo Fisher; Cat # 11140050), HEPES buffer (1M; Fisher Scientific; Cat # SH3023701) at 0.4M, and 10 mg/mL of gentamicin (Fisher Scientific; Cat # 15710072). Compounds were then diluted to 10 µM in 100 µL of fresh D10 media. Each plate utilized artemisinin and DMSO vehicle controls. To each well, 2,500 parasites per 100 µL of D10 media were added. Three technical replicates were then performed. After 48 hours, 160 µL of the D10 media was removed, and plates were subjected to freezing then thawing. Following this, 10 µL of the passive lysis buffer (Promega; Cat# E1910) was added and incubated at room temperature for 15 min. Finally, 100 µL of luciferase assay reagent (Promega; Cat# E1501) was added to each well, and luminescence was measured using a PHERAstar FSX plate reader (BMG Labtech, Germany).
(§1) For IC50 and cytotoxicity determination, we used 384 plates with confluent HFF cells. Compounds were serially diluted 3-fold with a starting concentration of 20 µM. Samples were further diluted by adding an equal volume of media containing 700 parasites. DMSO and […] of KAE609 were used as negative and positive controls, respectively. Assays were performed with a total of three technical replicates and two biological replicates. After incubation for 48 hours, 50 µL of media was removed, and plates were subjected to freezing and thawing. Following this, 10 µL of passive lysis buffer was added and plates were incubated for 15 min at room temperature. Finally, 30 µL of luciferase reagent was added, and the luminescence was measured immediately using a PHERAstar FSX. In parallel, cytotoxicity dose response was performed in the same fashion without the addition of parasites. Cell counting kit-8 reagent (GlpBio; Cat # GK10001) was added at a 1:10 dilution and incubated at 37°C, 5% CO2 for 1 hour. The absorbance was then measured at 450 nm using a PHERAstar FSX. The data management system CDD vault was used for curve fitting and IC50 determination.

[2] = tested on: human foreskin fibroblasts (HFFs); assay: HFF cytotoxicity dose response (cell counting kit-8); settings: for IC50: read-out: HFF IC50 (mean ± SEM)
Method: as §1, with “Samples” for “For IC50 and cytotoxicity determination, we used 384 plates with confluent HFF cells. Compounds were serially diluted 3-fold with a starting concentration of 20 µM. Samples”

[3] = tested on: Plasmodium falciparum (Dd2); settings: read-out: PfDd2 IC50, cited from earlier work
in vitro = settings: human
Method: as §1, with “Samples” for “For IC50 and cytotoxicity determination, we used 384 plates with confluent HFF cells. Compounds were serially diluted 3-fold with a starting concentration of 20 µM. Samples”

[4] = luciferase expressing RH88 in HFF, 48 hours
[5] = cytotoxicity, no parasites, 48 hours, CCK-8
[6] = mean of duplicate or triplicate experiments
[7] = highest concentrations tested (20 µM)

| Compound | IC50 [1, 4] | IC50 [2, 5] | IC50 ([1]; Toxoplasma gondii, 48 h) | IC50 ([2]; Homo sapiens, Fibroblast, 48 h) | other results |
| --- | --- | --- | --- | --- | --- |
| CC(O)[C@@]12SS[C@]3(C(=O)N1C)[C@@H](O)C1([C@@]45c6ccccc6N[C@@H]4N4C(=O)[C@]6(C(C)O)SS[C@]4(C(=O)N6C)[C@H]5O)c4ccccc4N[C@@H]1N3C2=O (some centres unmarked) [compound 130016, Verticillin D] | 0.0362 ± 0.0018 µM | 0.9432 ± 0.0064 µM |  |  |  |
| C[C@H]1Cc2c([nH]c3cc(Cl)c(F)cc23)[C@@]2(N1)C(=O)Nc1ccc(Cl)cc12 [KAE609, reference compound] |  |  | 0.44 ± 0.0348 µM | > 20 µM |  |
| CN(C)c1ccc2nc3ccc(=[N+](C)C)cc-3sc2c1 [Methylene blue, reference compound] |  |  | 0.258 ± 0.00095 µM | > 20 µM |  |
| C[C@H]1CCC/C=C/[C@@H]2C[C@H](O)C[C@H]2[C@H](O)/C=C/C(=O)O1 [compound 160010, Brefeldin A] |  |  | 0.243 ± 0.0784 µM | 6.43 µM |  |
| Alpha-cyclopiazonic acid [compound 170027] | 1.13 µM | > 40 µM |  |  |  |
| CCC(=O)CCCCCC1NC(=O)C2CCCCN2C(=O)C(C(C)C)NC(=O)C(Cc2cn(OC)c3ccccc23)NC1=O (centres unmarked) [compound 120251, Apicidin C] |  |  | 0.0259 ± 0.0102 µM | > 20 µM | IC50 [3, 6]: 0.236 µM |
| COC(=O)C12Oc3c(c(O)cc4c3C3C=CC5(C4)C(=O)c4cc(C)cc(O)c4C(O)=C5C3=O)C(O)=C1C(=O)CCC2O (centres unmarked) [compound 130143, Xanthoquinodin B2] |  |  | 0.131 ± 0.0365 µM | > 20 µM | IC50 [3, 6]: 1.01 µM |
| COC(=O)[C@]12Oc3cc4c(c(O)c3C(=O)C1=C(O)CC[C@@H]2O)[C@@H]1C=C[C@@]2(C4)C(=O)c3cc(C)cc(O)c3C(O)=C2C1=O [compound 130147, Xanthoquinodin A2] |  |  | 0.0564 ± 0.0128 µM | 12.3 µM | IC50 (in vitro): 12.3 ± 0.3 µM; IC50 [3, 6]: 0.68 µM |
| CO[C@@H]1[C@H](OC(=O)/C=C/C=C/C=C/C=C/C(=O)O)CC[C@]2(CO2)[C@H]1[C@@]1(C)O[C@@H]1CC=C(C)C [compound 150046, Fumagillin] |  |  | 0.0588 ± 0.0073 µM | > 20 µM | IC50 (in vitro): > 60 µM; toxicity to HFFs ([2]; highest concentration tested (60 µM)): lack of toxicity; IC50 [3, 6]: 1.31 µM |
| PF-1140 [compound 120159] | 3.29 µM | > 20 µM |  |  |  |
| COC(=O)C1=CC(O)C(O)C(O)C1N1CC(O)C(OC(C)=O)C1Cc1ccc(OC)cc1 (centres unmarked) [compound 150029] |  |  | 0.585 ± 0.0146 µM | 28.5 µM | IC50 at 48 h (in vitro; confluent human foreskin fibroblast (HFF) cells): 28.5 ± 2.4 µM |
| C=C1Cc2ccc3[nH]c4c(c3c2[C@H]2[C@@H]1C[C@@H]2C(C)(C)O)C[C@@H]1CC[C@@]2(O)C3=C[C@@H](O)[C@@H](C(=C)C)O[C@H]3CC[C@]2(C)[C@@]41C [compound 120253, Secopenitrem D] | 14.1 µM | > 20 µM |  |  |  |
| CC[C@](C)(NC(=O)[C@H](CC(C)C)NC(=O)[C@H](C)NC(=O)C(C)(C)NC(=O)[C@@H]1CCCCN1C(=O)C(C)(C)NC(=O)C(C)(C)NC(=O)CNC(=O)CCNC(=O)[C@H](CC(C)C)NC(=O)C(C)(C)NC(=O)[C@](C)(CC)NC(=O)[C@@H]1CCCCN1C(=O)C(C)(C)NC(=O)[C@@H]1CCCCN1C(C)=O)C(=O)N[C@@H](CC(C)C)C[N+]1=C2CCCN2CCC1 [compound 150004, Efrapeptin G] (Ac-[Pip][Aib][Pip][Iva][Aib]L[βAla]G[Aib][Aib][Pip][Aib]AL[Iva]-X2) |  |  |  |  | toxicity to HFFs [2, 7]: no toxicity |
| CC[C@](C)(NC(=O)[C@H](CC(C)C)NC(=O)[C@H](C)NC(=O)C(C)(C)NC(=O)[C@@H]1CCCCN1C(=O)C(C)(C)NC(=O)C(C)(C)NC(=O)CNC(=O)CCNC(=O)[C@H](CC(C)C)NC(=O)C(C)(C)NC(=O)C(C)(C)NC(=O)[C@@H]1CCCCN1C(=O)C(C)(C)NC(=O)[C@@H]1CCCCN1C(C)=O)C(=O)N[C@@H](CC(C)C)CN1CCC[N+]2=C1CCC2 [compound 150003, Efrapeptin F] (Ac-[Pip][Aib][Pip][Aib][Aib]L[βAla]G[Aib][Aib][Pip][Aib]AL[Iva]-X1; N-terminus and C-terminus assumed) | 0.0555 ± 0.0118 µM | > 20 µM |  |  | IC50 ([3]; ref Lee et al. ([8])): 0.399 µM |
| CC[C@](C)(NC(=O)[C@H](CC(C)C)NC(=O)[C@H](C)NC(=O)C(C)(C)NC(=O)[C@@H]1CCCCN1C(=O)C(C)(C)NC(=O)C(C)(C)NC(=O)CNC(=O)CCNC(=O)[C@H](CC(C)C)NC(=O)C(C)(C)NC(=O)[C@](C)(CC)NC(=O)[C@@H]1CCCCN1C(=O)C(C)(C)NC(=O)[C@@H]1CCCCN1C(C)=O)C(=O)N[C@@H](CC(C)C)CN1CCC[N+]2=C1CCC2 [compound 150004, Efrapeptin G] (Ac-[Pip][Aib][Pip][Iva][Aib]L[βAla]G[Aib][Aib][Pip][Aib]AL[Iva]-X1; N-terminus and C-terminus assumed) | 0.0123 ± 0.0023 µM | > 20 µM |  |  | IC50 ([3]; ref Lee et al. ([8])): 0.46 µM |
| CCCCC[C@@H](O)C[C@@H](O)C[C@@H]1Cc2cc3cc(OC)c(-c4c(OC)cc5cc6c(c(O)c5c4O)C(=O)O[C@H](C[C@H](O)C[C@H](O)CCCCC)C6)c(O)c3c(O)c2C(=O)O1 [compound 150020, Dinapinone A] | 3.17 µM | 6.67 µM |  |  |  |
| CN1C(=O)[C@]2(Cc3cn([C@]45C[C@@]67SS[C@@](CO)(C(=O)N6[C@H]4Nc4ccccc45)N(C)C7=O)c4ccccc34)SS[C@@]1(CO)C(=O)N2C [compound 170066, Chetomin] |  |  | 0.0622 ± 0.00375 µM | 0.369 ± 0.0726 µM |  |
| COC(=O)[C@@]12Oc3ccc(-c4ccc5c(c4O)C(O)C4=C(O)C[C@H](C)[C@@H](O)[C@]4(C(=O)OC)O5)c(O)c3C(=O)C1=C(O)C[C@H](C)[C@H]2O (some centres unmarked) [compound 130002, Secalonic acid D] |  |  | 0.334 ± 0.103 µM | 3.73 µM | IC50 [3, 6]: 1.3 µM |
| CC1=C[C@@H]2/C=C(\C)CC[C@H](O)[C@H](O)/C=C/C(=O)[C@]23C(=O)N[C@@H](CC(C)C)[C@@H]3[C@@H]1C [compound 170081, Aspochalasin D] |  |  | 1.27 µM | 30.3 µM |  |
| COC(=O)c1c(Sc2c(O)cc(OC)c(C(=O)c3c(O)cc(C)cc3O)c2C(=O)OC)c(O)cc(OC)c1C(=O)c1c(O)cc(C)cc1O [compound 150052, Polluxochrin] |  |  | 0.801 ± 0.163 µM | > 60 µM |  |
| C=C[C@H]1C[C@@H](C)C[C@@H](C)[C@@H]1c1c(O)ccn(O)c1=O [compound 130034, Pyridoxatin] | > 8.56 µM | > 20 µM |  |  |  |
| COc1c(C[C@@H](C)OC(=O)Oc2ccc(O)cc2)c2c3c(C[C@@H](C)OC(=O)c4ccccc4)c(OC)c(=O)c4c(O)cc(OC)c(c5c(OC)cc(O)c(c1=O)c52)c43 [compound 170068, Calphostin C] |  |  | 1.14 µM | > 20 µM | IC50 [3, 6]: 0.41 µM |
| CC[C@](C)(NC(=O)[C@H](CC(C)C)NC(=O)[C@H](C)NC(=O)C(C)(C)NC(=O)[C@@H]1CCCCN1C(=O)C(C)(C)NC(=O)C(C)(C)NC(=O)CNC(=O)CCNC(=O)[C@H](CC(C)C)NC(=O)C(C)(C)NC(=O)C(C)(C)NC(=O)[C@@H]1CCCCN1C(=O)C(C)(C)NC(=O)[C@@H]1CCCCN1C(C)=O)C(=O)N[C@@H](CC(C)C)C[N+]1=C2CCCN2CCC1 [compound 150003, Efrapeptin F] (Ac-[Pip][Aib][Pip][Aib][Aib]L[βAla]G[Aib][Aib][Pip][Aib]AL[Iva]-X2) |  |  |  |  | toxicity to HFFs [2, 7]: no toxicity |
| Verticillin [compound 130038] | 0.079 ± 0.0293 µM | 0.0824 ± 0.0418 µM |  |  | IC50 [3, 6]: 0.501 µM |
